Assay results reported in US10251902B2, “Pharmaceutical composition for treating or preventing neuropsychiatric disease, containing flavone-6-C-glucose derivatives as active ingredients” (priority 2013, dated 2019).

Key:
Type in all cases: in vivo, ICR mice
[1] = test system: pentobarbital-induced sleep; test: Sleep-inducing test (pentobarbital); conditions: swertisin 10 mg/kg
Procedure: (§1) Six-week old ICR mice in about 26 g to 28 g (Orientbio Inc, Republic of Korea) were received water and feed without constraint and adapted for 5 days under an environment having about 23±1° C. of temperature, about 60±10% of humidity and 12-hour light/dark cycle (animal laboratory at College of Pharmacy, Kyung-Hee University), and then used for the experiment. Foods were blocked at 24 hours before the test.
The mice prepared in 1) were divided into […] (10 mice per each group) including the drug administration group 1, wherein swertisin was administered, and the controls 1 and 2. Swertisin prepared in Example 3 was dissolved in 10% Tween 80 (Polyoxyethylene sorbitan monooleate: Sigma, U.S.A.) and administered to the drug administration group 1 in an amount of 10 mg/kg. Meanwhile, 0.15 mL of 10% Tween 80 was administered to the control 1.
After 1 hour of administration, pentobarbital was dissolved in a saline solution and intraperitoneally administered to the mouse in an amount of 60 mg/kg. The mouse was located in the cage. At this time, straw was laid in the cage only enough to cover the floor, and only one mouse was located in the cage for observation. […]

[2] = test system: anxiety symptoms in a normal status; test: Marble burying test; conditions: swertisin 10 mg/kg
Procedure: as §1, with “experiment.” for “experiment. Foods were blocked at 24 hours before the test.”
As a method of measuring alleviation of anxiety symptoms in a normal status, the marble burying test was conducted based on the nature of mice that they dig when feel anxiety. Inside of a cage in size of 40 cm s 27 cm s 18 cm was covered with straw to the height of 4 cm, and 25 marbles having same pattern were arranged at intervals of 3 cm. Two groups (10 mice per each group) were prepared as the drug administration group 1, wherein swertisin, which is one of the flavone-6-C-β-D-glucose derivatives prepared in Example 3, was administered, and the control 1. […]
After 60 minutes of administration, mice of the drug administration group 1 and the control 1 were carefully located in the cage having the marbles and the mice were allowed to move freely for 30 minutes. After 30 minutes, the number of buried marbles under straw was counted. […] The more the number of buried marbles, it was assessed that the laboratory animal feels anxiety severer (Broekkamp, C L. et al., Eur J Pharmacol., 126, pp 223-229, 1986).

mouse model of stroke = test: Y-maze test in mouse model of stroke; conditions: for Alternation Behavior (%): Table 11, test on 7th day; for Total Entry: Table 12
Procedure: as §1, with “Seven-week” for “Six-week”, “30” for “26”, “35” for “28”, “experiment.” for “experiment. Foods were blocked at 24 hours before the test.”
The laboratory animal in 1) was located in an operating room, adapted for 60 minutes, and anesthetized in a space providing anaesthetic gasses (nitrous oxide: 70%; oxygen: 30%; isoflurane: 2.0%). Pain reflex was examined to confirm the anesthesia. The laboratory animal was lain down straight on an operating table, and fixed its upper limb and head. Skin from the spot, where the upper limb and the center line meet, was incised as 1.5 cm to expose the both common carotid arteries by using tweezers while not damaging the tissues. Tissues and nerves attached to the exposed carotid arteries were separated and fixed with an aneurysm clip. The clip was removed after 15 minutes and reperfused, and the incised area was sutured with sutures. After the suture, the laboratory animal was immediately moved to a recovery room (32-33° C., O2 enrichment condition) and kept until it recovers from anesthesia. Observation on its weight and status was conducted once a day for 4 days after the operation.
Administration of the Swertia japonica extract prepared in Example 1 was initiated to the mice prepared in the 1) immediately after the operation 3), and kept administering at the same time for 7 days. Five groups (5 mice per each group) were prepared as drug administration groups 1, 2 and 3, wherein the Swertia japonica extract prepared in Example 1 was administered thereto; and controls 1 and 2. 50 mg/kg, 100 mg/kg and 200 mg/kg of the Swertia japonica extract was administered to the drug administration groups 1, 2 and 3 respectively; and 0.15 mL of Tween 80 was administered to the controls 1 and 2 respectively. At the 7th day from the initial administration, the Y-maze test was conducted for the drug administration groups 1 to 3 and the controls 1 to 2 in the same manner as Experimental Example 1-5.
After 60 minutes, mice of the drug administration groups 1-3 and the controls 1-2 were carefully located on each branches of the Y-maze, which was divided as A, B and C respectively, and let the mice move freely for 8 minutes, and then recorded branches that mice have entered. The entrance was recorded when the entire body (i.e. including the tail) has completely entered. It was also recorded when the mice entered again into the branch that the mice have entered before. The result was converted into % via Equation 1.
Administration of swertisin prepared in Example 3 was initiated to the mice prepared in 1) immediately after the operation 3), and kept administering at the same time for 7 days. Five groups (5 mice per each group) were prepared as drug administration groups 1, 2 and 3, wherein swertisin prepared in Example 3 was administered thereto; and controls 1 and 2. 50 mg/kg, 100 mg/kg and 200 mg/kg of swertisin was administered to the drug administration groups 1, 2 and 3 respectively; and 0.15 mL of Tween 80 was administered to the controls 1 and 2 respectively. At the 7th day from the initial administration, the Y-maze test was conducted for the drug administration groups 1 to 3 and the controls 1 to 2 in the same manner as Experimental Example 1.

[3] = swertisin 50 mg/kg for 7 days after stroke operation
[4] = swertisin 100 mg/kg for 7 days after stroke operation
[5] = swertisin 200 mg/kg for 7 days after stroke operation

Compound: COc1cc2oc(-c3ccc(O)cc3)cc(=O)c2c(O)c1[C@@H]1O[C@H](CO)[C@@H](O)[C@H](O)[C@H]1O [swertisin]
- total sleep time compared to the control 1, in words ([1]; pentobarbital 60 mg/kg i.p.): remarkably decreased
- Total Sleep Time ([1]; pentobarbital 60 mg/kg i.p. 1 hour after administration): 94.47 ± 21.83 min
- number of the buried marbles compared to that of the control 1, in words [2]: decreased
- Number of Buried Marbles ([2]; 60 minutes after administration, 30 minutes in cage, 25 marbles): 21.78 ± 1.856
- Alternation Behavior (%) (mouse model of stroke; [3]): 56.10 ± 7.431%
- Alternation Behavior (%) (mouse model of stroke; [4]): 57.58 ± 12.86%
- Alternation Behavior (%) (mouse model of stroke; [5]): 70.46 ± 15.74%
- Total Entry (mouse model of stroke; [3]): 24.14 ± 2.478
- Total Entry (mouse model of stroke; [4]): 28.50 ± 6.364
- Total Entry (mouse model of stroke; [5]): 22.00 ± 5.958
